This is an account of results in patent US20210261512A1, “NOVEL COMPOUNDS” (INFLAZOME LIMITED, priority 2018, published 2021).

Experiment [1] addresses T1, NLRP3 (Homo sapiens, UniProt Q96P20). Kind of experiment: THP-1 cells pyroptosis assay. The settings on record: LPS 1.0 μg/ml, nigericin 5 μM, resazurin readout, 10 μM top dose (Example 2: top dose of 30 μM). Also on record: Seed THP-1 cells (25,000 cells/well) containing 1.0 μg/ml LPS; host or cells: THP-1. The experiment is classed as cell-based. Summed up:
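Pyroptosis induced by 5 μM nigericin (1 h) in LPS-primed (1 μg/ml) THP-1 cells, 25,000/well in serum-free RPMI, after 3 h compound pre-treatment (8 points, 10 μM top unless stated). Surviving cells measured with 100 μM resazurin, Ex 560/Em 590; IC50 via variable-slope 4-parameter regression.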

The target in experiment [2] is T1, NLRP3. Nature of the experiment: Human whole blood IL1β release assay. The experiment is classed as cell-based. The note with it: LPS 1 μg/ml, nigericin 10 μM, IL-1β AlphaLisa, 10 μM top dose (Example 2: top dose of 30 μM), read-out: HWB IC50. The method, boiled down:
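Healthy-donor heparinised human whole blood with 1 μg/ml LPS, compound (8-point half-log dilution, 10 μM top dose unless stated; 0.1% DMSO vehicle) for 3 h at 37 °C, then nigericin 10 μM final for 1 h. Supernatant IL-1β by AlphaLISA; IC50 from 4-parameter variable-slope fit.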

T1 sequence (Q96P20 whole entry): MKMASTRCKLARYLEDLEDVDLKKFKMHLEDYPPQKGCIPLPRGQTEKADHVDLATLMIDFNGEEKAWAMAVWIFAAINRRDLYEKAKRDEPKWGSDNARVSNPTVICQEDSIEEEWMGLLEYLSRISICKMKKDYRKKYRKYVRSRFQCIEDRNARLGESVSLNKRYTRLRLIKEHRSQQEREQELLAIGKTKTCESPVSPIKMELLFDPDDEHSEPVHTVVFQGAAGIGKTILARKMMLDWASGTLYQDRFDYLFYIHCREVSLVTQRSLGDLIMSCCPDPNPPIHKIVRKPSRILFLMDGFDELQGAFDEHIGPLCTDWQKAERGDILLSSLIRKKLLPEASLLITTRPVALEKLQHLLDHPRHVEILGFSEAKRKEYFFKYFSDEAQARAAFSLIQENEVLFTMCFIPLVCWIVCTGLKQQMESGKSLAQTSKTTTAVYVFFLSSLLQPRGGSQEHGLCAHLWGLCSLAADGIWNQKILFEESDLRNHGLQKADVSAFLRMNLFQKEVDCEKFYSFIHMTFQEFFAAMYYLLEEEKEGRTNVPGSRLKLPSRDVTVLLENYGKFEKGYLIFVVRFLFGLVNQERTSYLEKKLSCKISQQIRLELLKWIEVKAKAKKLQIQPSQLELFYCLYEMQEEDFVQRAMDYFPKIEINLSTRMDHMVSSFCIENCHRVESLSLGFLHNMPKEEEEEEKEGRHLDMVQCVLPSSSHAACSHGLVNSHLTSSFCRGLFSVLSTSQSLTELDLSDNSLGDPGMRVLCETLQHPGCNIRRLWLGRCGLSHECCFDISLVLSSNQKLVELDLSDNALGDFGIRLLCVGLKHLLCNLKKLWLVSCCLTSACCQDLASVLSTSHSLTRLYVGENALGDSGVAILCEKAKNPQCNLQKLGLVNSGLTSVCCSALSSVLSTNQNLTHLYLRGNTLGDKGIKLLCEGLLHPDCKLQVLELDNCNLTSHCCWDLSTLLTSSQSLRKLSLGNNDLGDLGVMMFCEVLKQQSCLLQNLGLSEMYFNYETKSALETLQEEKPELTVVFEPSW

On to `CN1CCC2(CCN(S(=O)(=O)c3nnc(Nc4c5c(cc6c4CCC6)CCC5)[nH]3)C2)C1` (centres unmarked) [Example 277, N-(1,2,3,5,6,7-hexahydro-s-indacen-4-yl)-5-((7-methyl-2,7-diazaspiro[4.4]nonan-2-yl)sulfonyl)-4H-1,2,4-triazol-3-amine], for which the IC50 (as a rule, the point on the concentration scale where inhibition reaches its midpoint) is not above 0.5 µM in experiment [1] and not above 1 µM in experiment [2].
As to `CNCC1CN(S(=O)(=O)c2nnc(Nc3c4c(cc5c3CCC5)CCC4)[nH]2)C1` [Example 279, N-(1,2,3,5,6,7-hexahydro-s-indacen-4-yl)-5-((3-((methylamino)methyl)azetidin-1-yl)sulfonyl)-4H-1,2,4-triazol-3-amine], the IC50 in experiment [1] and in experiment [2] was not above 0.5 µM in each case.
As to `CN(C)CC1CCN(S(=O)(=O)c2nnc(Oc3c4c(cc5c3CCC5)CCC4)[nH]2)C1` (centres unmarked) [Example 286, 1-(1-((5-((1,2,3,5,6,7-hexahydro-s-indacen-4-yl)oxy)-4H-1,2,4-triazol-3-yl)sulfonyl)pyrrolidin-3-yl)-N,N-dimethylmethanamine], the IC50 is not above 5 µM in experiment [1] and not above 10 µM in experiment [2].
On to `CNC[C@H]1CCN(S(=O)(=O)c2nnc(Nc3c4c(cc5c3CCC5)CCC4)[nH]2)C1` [Example 288, (R)—N-(1,2,3,5,6,7-hexahydro-s-indacen-4-yl)-5-((3-((methylamino)methyl)pyrrolidin-1-yl)sulfonyl)-4H-1,2,4-triazol-3-amine], for which the IC50 in experiment [1] was not above 0.5 µM; in experiment [2], not above 1 µM.
For `CC(C)(O)C1CCN(S(=O)(=O)c2nnc(Nc3c4c(cc5c3CCC5)CCC4)[nH]2)C1` (centres unmarked) [Example 289, 2-(1-((5-((1,2,3,5,6,7-hexahydro-s-indacen-4-yl)amino)-4H-1,2,4-triazol-3-yl)sulfonyl)pyrrolidin-3-yl)propan-2-ol], the IC50 was not above 1 µM in experiment [1] and not above 5 µM in experiment [2].
On the same counts, the results for `CC(CNS(=O)(=O)c1nnc(Nc2c3c(cc4c2CCC4)CCC3)[nH]1)N(C)C` (centres unmarked) [Example 290, N-(2-(dimethylamino)propyl)-5-((1,2,3,5,6,7-hexahydro-s-indacen-4-yl)amino)-4H-1,2,4-triazole-3-sulfonamide] are not above 5 µM and not above 5 µM.
In the same order, the values of `CN(C)CC1CN(S(=O)(=O)c2nnc(Nc3c4c(cc5c3CCC5)CCC4)[nH]2)C1` [Example 291, 5-((3-((dimethylamino)methyl)azetidin-1-yl)sulfonyl)-N-(1,2,3,5,6,7-hexahydro-s-indacen-4-yl)-4H-1,2,4-triazol-3-amine] are not above 0.5 µM and not above 0.5 µM.
As to `CC1(O)CCN(S(=O)(=O)c2nnc(Nc3c4c(cc5c3CCC5)CCC4)[nH]2)CC1` [Example 292, 1-((5-((1,2,3,5,6,7-hexahydro-s-indacen-4-yl)amino)-4H-1,2,4-triazol-3-yl)sulfonyl)-4-methylpiperidin-4-ol], the IC50 in experiment [1] and in experiment [2] was not above 5 µM each time.
With `CC(C)(O)C1CCN(S(=O)(=O)c2nnc(Nc3c4c(cc5c3CCC5)CCC4)[nH]2)CC1` [Example 293, 2-(1-((5-((1,2,3,5,6,7-hexahydro-s-indacen-4-yl)amino)-4H-1,2,4-triazol-3-yl)sulfonyl)piperidin-4-yl)propan-2-ol], the IC50 was not above 0.5 µM in experiment [1] and not above 10 µM in experiment [2].
On the same counts, the results for `CN1CCCNC(=O)C12CCN(S(=O)(=O)c1nnc(Nc3c4c(cc5c3CCC5)CCC4)[nH]1)CC2` [Example 294, 3-((5-((1,2,3,5,6,7-hexahydro-s-indacen-4-yl)amino)-4H-1,2,4-triazol-3-yl)sulfonyl)-7-methyl-3,7,11-triazaspiro[5.6]dodecan-12-one] are not above 0.5 µM and not above 5 µM.
On the same counts, the results for `CN1CCOC2(C1)CN(S(=O)(=O)c1nnc(Nc3c4c(cc5c3CCC5)CCC4)[nH]1)C2` [Example 295, N-(1,2,3,5,6,7-hexahydro-s-indacen-4-yl)-5-((8-methyl-5-oxa-2,8-diazaspiro[3-5]nonan-2-yl)sulfonyl)-4H-1,2,4-triazol-3-amine] are not above 0.5 µM and not above 1 µM.
In the case of `COc1cc(-c2cc(F)cc(C3CC3)c2Nc2nnc(S(=O)(=O)N3CCC(N(C)C)CC3)[nH]2)ccn1` [Example 301, 1-((5-((2-cyclopropyl-4-fluoro-6-(2-methoxypyridin-4-yl)phenyl)amino)-1H-1,2,4-triazol-3-yl)sulfonyl)-N,N-dimethylpiperidin-4-amine], the IC50 in experiment [1] is not above 0.5 µM; in experiment [2], not above 5 µM.
On the same counts, the results for `CN(C)CC1CCN(S(=O)(=O)c2nnc(Nc3c4c(cc5c3CCC5)CCC4)[nH]2)CC1` [Example 304, 5-((4-((dimethylamino)methyl)piperidin-1-yl)sulfonyl)-N-(1,2,3,5,6,7-hexahydro-s-indacen-4-yl)-4H-1,2,4-triazol-3-amine] are not above 0.5 µM and not above 1 µM.
For the molecule `CN(C)CC1CCCN(S(=O)(=O)c2nnc(Nc3c4c(cc5c3CCC5)CCC4)[nH]2)C1` (centres unmarked) [Example 305, 5-((3-((dimethylamino)methyl)piperidin-1-yl)sulfonyl)-N-(1,2,3,5,6,7-hexahydro-s-indacen-4-yl)-4H-1,2,4-triazol-3-amine], the IC50 in experiment [1] and in experiment [2] was not above 5 µM throughout.
Regarding `O=S(=O)(c1nnc(Nc2c3c(cc4c2CCC4)CCC3)[nH]1)N1CC[C@H](CN2CCCC2)C1` [Example 306, (R)—N-(1,2,3,5,6,7-hexahydro-s-indacen-4-yl)-5-((3-(pyrrolidin-1-ylmethyl)pyrrolidin-1-yl)sulfonyl)-4H-1,2,4-triazol-3-amine], the IC50 in experiment [1] and in experiment [2] was not above 1 µM throughout.
Consider `O=S(=O)(c1nnc(Nc2c3c(cc4c2CCC4)CCC3)[nH]1)N1CC[C@H](CNC2CC2)C1` [Example 307, (R)-5-((3-((cyclopropylamino)methyl)pyrrolidin-1-yl)sulfonyl)-N-(1,2,3,5,6,7-hexahydro-s-indacen-4-yl)-4H-1,2,4-triazol-3-amine], for which the IC50 is not above 1 µM in experiment [1] and not above 10 µM in experiment [2].
Regarding `CCNC[C@H]1CCN(S(=O)(=O)c2nnc(Nc3c4c(cc5c3CCC5)CCC4)[nH]2)C1` [Example 308, (R)-5-((3-((ethylamino)methyl)pyrrolidin-1-yl)sulfonyl)-N-(1,2,3,5,6,7-hexahydro-s-indacen-4-yl)-4H-1,2,4-triazol-3-amine], the IC50 in experiment [1] was not above 0.5 µM; in experiment [2], not above 5 µM.
On the same counts, the results for `Cc1cc2c(c(Nc3nnc(S(C)(=O)=O)[nH]3)c1-c1ccnc(OC3CCN(C)CC3)c1)CCC2` [Example 317, N-(6-methyl-5-(2-((1-methylpiperidin-4-yl)oxy)pyridin-4-yl)-2,3-dihydro-1H-inden-4-yl)-5-(methylsulfonyl)-4H-1,2,4-triazol-3-amine] are not above 1 µM and not above 5 µM.
On to `Cc1cc2c(c(Nc3nnc(S(=O)(=O)c4ccccc4)[nH]3)c1-c1ccnc(OC3CCN(C)CC3)c1)CCC2` [Example 318, N-(6-methyl-5-(2-((1-methylpiperidin-4-yl)oxy)pyridin-4-yl)-2,3-dihydro-1H-inden-4-yl)-5-(phenylsulfonyl)-4H-1,2,4-triazol-3-amine], for which the values for the IC50 in experiment [1] and in experiment [2] were not above 0.5 µM and not above 5 µM, respectively.
Regarding `COc1cc(-c2c(C)cc3c(c2Nc2nnc(S(=O)(=O)c4ccccc4)[nH]2)CCC3)ccn1` [Example 319, N-(5-(2-methoxypyridin-4-yl)-6-methyl-2,3-dihydro-1H-inden-4-yl)-5-(phenylsulfonyl)-4H-1,2,4-triazol-3-amine], the results for the IC50 in experiment [1] and in experiment [2] were not above 0.5 µM and not above 10 µM, respectively.
Take `CN(C)C(=O)Cn1ccc(S(=O)(=O)c2nnc(Nc3c4c(cc5c3CCC5)CCC4)[nH]2)n1` [Example 320, 2-(3-((5-((1,2,3,5,6,7-hexahydro-s-indacen-4-yl)amino)-4H-1,2,4-triazol-3-yl)sulfonyl)-1H-pyrazol-1-yl)-N,N-dimethylacetamide]: the figures for the IC50 in experiment [1] and in experiment [2] were not above 0.5 µM and not above 5 µM, respectively.
On the same counts, the results for `NS(=O)(=O)c1ccccc1S(=O)(=O)c1nnc(Nc2c3c(cc4c2CCC4)CCC3)[nH]1` [Example 325, 2-((5-((1,2,3,5,6,7-hexahydro-s-indacen-4-yl)amino)-4H-1,2,4-triazol-3-yl)sulfonyl)benzenesulfonamide] are not above 0.5 µM and not above 10 µM.
On the same counts, the results for `COc1cc(-c2ccc3c(c2Nc2nnc(S(=O)(=O)c4cccc(CN(C)C)c4)[nH]2)CCC3)ccn1` [Example 329, 5-((3-((dimethylamino)methyl)-phenyl)sulfonyl)-N-(5-(2-methoxypyridin-4-yl)-2,3-dihydro-1H-inden-4-yl)-4H-1,2,4-triazol-3-amine] are not above 0.5 µM and not above 5 µM.
On the same counts, the results for `CC(C)(O)[C@@H]1CCN(S(=O)(=O)c2nnc(Nc3c4c(cc5c3CCC5)CCC4)[nH]2)C1` [Example 330, (R)-2-(1-((5-((1,2,3,5,6,7-hexahydro-s-indacen-4-yl)amino)-4H-1,2,4-triazol-3-yl)sulfonyl)pyrrolidin-3-yl)propan-2-ol] are not above 1 µM and not above 10 µM.
In the case of `CN1CC2(CC1=O)CN(S(=O)(=O)c1nnc(Nc3c4c(cc5c3CCC5)CCC4)[nH]1)C2` [Example 331, 2-((5-((1,2,3,5,6,7-hexahydro-s-indacen-4-yl)amino)-4H-1,2,4-triazol-3-yl)sulfonyl)-6-methyl-2,6-diazaspiro[3.4]octan-7-one], the IC50 in experiment [1] and in experiment [2] was not above 5 µM in each case.
